From the NIST ThermoML archive (doi:10.1016/j.tca.2017.12.013)

Assay: molar heat capacity at constant pressure
Conditions: 101.33 kPa, DSC

[Ag+].[Ag+].[S-2] [silver sulfide]
Conditions	molar heat capacity at constant pressure [J/K/mol]
299.71 K, Crystal 3	73.92
300.71 K, Crystal 3	74.02
301.71 K, Crystal 3	74.12
302.71 K, Crystal 3	74.21
303.71 K, Crystal 3	74.31
304.71 K, Crystal 3	74.4
305.71 K, Crystal 3	74.46
306.71 K, Crystal 3	74.53
307.71 K, Crystal 3	74.62
308.71 K, Crystal 3	74.69
309.71 K, Crystal 3	74.77
310.71 K, Crystal 3	74.85
311.71 K, Crystal 3	74.92
312.71 K, Crystal 3	75.14
313.71 K, Crystal 3	75.21
314.71 K, Crystal 3	75.29
315.71 K, Crystal 3	75.36
316.71 K, Crystal 3	75.42
317.71 K, Crystal 3	75.49
318.71 K, Crystal 3	75.53
319.71 K, Crystal 3	75.58
320.71 K, Crystal 3	75.65
321.71 K, Crystal 3	75.71
322.71 K, Crystal 3	75.78
323.71 K, Crystal 3	75.84
324.71 K, Crystal 3	75.9
325.71 K, Crystal 3	75.97
326.71 K, Crystal 3	76.03
327.71 K, Crystal 3	76.09
328.71 K, Crystal 3	76.14
329.71 K, Crystal 3	76.2
330.71 K, Crystal 3	76.26
331.71 K, Crystal 3	76.31
332.71 K, Crystal 3	76.37
333.71 K, Crystal 3	76.42
334.71 K, Crystal 3	76.48
335.71 K, Crystal 3	76.53
336.71 K, Crystal 3	76.58
337.71 K, Crystal 3	76.63
338.71 K, Crystal 3	76.68
339.71 K, Crystal 3	76.74
340.71 K, Crystal 3	76.79
341.71 K, Crystal 3	76.84
342.71 K, Crystal 3	76.89
343.71 K, Crystal 3	76.93
344.71 K, Crystal 3	76.98
345.71 K, Crystal 3	77.03
346.71 K, Crystal 3	77.08
347.71 K, Crystal 3	77.13
348.71 K, Crystal 3	77.18
349.71 K, Crystal 3	77.22
350.71 K, Crystal 3	77.27
351.71 K, Crystal 3	77.32
352.71 K, Crystal 3	77.37
353.71 K, Crystal 3	77.42
354.71 K, Crystal 3	77.46
355.71 K, Crystal 3	77.51
356.71 K, Crystal 3	77.56
357.71 K, Crystal 3	77.61
358.71 K, Crystal 3	77.66
359.71 K, Crystal 3	77.71
360.71 K, Crystal 3	77.76
361.71 K, Crystal 3	77.81
362.71 K, Crystal 3	77.86
363.71 K, Crystal 3	77.91
364.71 K, Crystal 3	77.96
365.71 K, Crystal 3	78.01
366.71 K, Crystal 3	78.07
367.71 K, Crystal 3	78.12
368.71 K, Crystal 3	78.17
369.71 K, Crystal 3	78.23
370.71 K, Crystal 3	78.29
371.71 K, Crystal 3	78.34
372.71 K, Crystal 3	78.4
373.71 K, Crystal 3	78.46
374.71 K, Crystal 3	78.52
375.71 K, Crystal 3	78.58
376.71 K, Crystal 3	78.64
377.71 K, Crystal 3	78.7
378.71 K, Crystal 3	78.76
379.71 K, Crystal 3	78.83
380.71 K, Crystal 3	78.89
381.71 K, Crystal 3	78.96
382.71 K, Crystal 3	79.03
383.71 K, Crystal 3	79.1
384.71 K, Crystal 3	79.17
385.71 K, Crystal 3	79.24
386.71 K, Crystal 3	79.31
387.71 K, Crystal 3	79.39
388.71 K, Crystal 3	79.46
389.71 K, Crystal 3	79.54
390.71 K, Crystal 3	79.62
391.71 K, Crystal 3	79.7
392.71 K, Crystal 3	79.79
393.71 K, Crystal 3	79.87
394.71 K, Crystal 3	79.96
395.71 K, Crystal 3	80.04
396.71 K, Crystal 3	80.13
397.71 K, Crystal 3	80.23
398.71 K, Crystal 3	80.32
399.71 K, Crystal 3	80.41
400.71 K, Crystal 3	80.5
401.71 K, Crystal 3	80.6
402.71 K, Crystal 3	80.69
403.71 K, Crystal 3	80.78
404.71 K, Crystal 3	80.88
405.71 K, Crystal 3	80.98
406.71 K, Crystal 3	81.09
407.71 K, Crystal 3	81.19
408.71 K, Crystal 3	81.3
409.71 K, Crystal 3	81.41
410.71 K, Crystal 3	81.52
411.71 K, Crystal 3	81.63
412.71 K, Crystal 3	81.75
413.71 K, Crystal 3	81.87
414.71 K, Crystal 3	81.99
415.71 K, Crystal 3	82.11
416.71 K, Crystal 3	82.24
417.71 K, Crystal 3	82.37
418.71 K, Crystal 3	82.5
419.71 K, Crystal 3	82.64
420.71 K, Crystal 3	82.77
421.71 K, Crystal 3	82.91
422.71 K, Crystal 3	83.06
423.71 K, Crystal 3	83.2
424.71 K, Crystal 3	83.35
425.71 K, Crystal 3	83.51
426.71 K, Crystal 3	83.66
427.71 K, Crystal 3	83.82
428.71 K, Crystal 3	83.98
429.71 K, Crystal 3	84.15
430.71 K, Crystal 3	84.32
431.71 K, Crystal 3	84.49
432.71 K, Crystal 3	84.66
433.71 K, Crystal 3	84.84
434.71 K, Crystal 3	85.01
435.71 K, Crystal 3	85.19
436.71 K, Crystal 3	85.36
437.71 K, Crystal 3	85.54
438.71 K, Crystal 3	85.72
439.71 K, Crystal 3	85.91
440.71 K, Crystal 3	86.2
441.71 K, Crystal 3	86.6
442.71 K, Crystal 3	87.1
443.71 K, Crystal 3	87.6
444.71 K, Crystal 3	88.38
446.71 K, Crystal 3	90.5
447.71 K, Crystal 3	92.95
448.71 K, Crystal 3	93.65
449.71 K, Crystal 3	94.94
461.57 K, Crystal 2	90.56
462.57 K, Crystal 2	90.49
463.57 K, Crystal 2	90.42
